This note sets out measurements from US20250042879A1, “HETEROCYCLIC SUBSTITUTED 1,3,4-THIADIAZOLE AND PYRIDAZINE COMPOUNDS AND METHODS OF USING THE SAME” (Rgenta Therapeutics, Inc., priority 2021, published 2025).

Common to all, as to format: cell-based
In test [1] the test system is HTT (exclusion transcript). In words: RT-qPCR assay to quantify changes in HTT splice isoforms: exclusion transcript. The note with it: Homo sapiens, SK-N-SH cells, approximately 96 hours, GAPDH reference. As for the experimental part:
(§1) SK—N—SH cells were seeded at 8.5e3 per well in a 96 well plate, in […] (×4 plates, quadruplicate) and treated with the indicated compounds at different concentrations with a final DMSO concentration of 0.5%. Vehicle controls were set up by diluting DMSO 1:200. Cells were returned to a humidified incubator at 37° C., 5% CO2 and treated for approximately 96 hours.
(§2) RNA was isolated from each well using QIAGEN RNeasy mini columns (cat #74004) as per the manufacturer's instructions. Each condition was done in quadruplicate as mentioned above to allow for adequate starting template for downstream analyses. These quadruplicates were pooled (by condition) into single replicates at the cell lysis step. Reverse-transcription was done using the Applied Biosystems High-Capacity cDNA Reverse Transcription Kit (cat #4368814), per the manufacturer's instructions, using approximately half of the harvested RNA. The cDNA was diluted 1:10 in nuclease-free water, and qPCR was done using Applied Biosystems PowerUp SYBR Green Master Mix (cat #A25742) per the manufacturer's instructions. Cycling conditions are primers are detailed below. Each sample was run in technical duplicates.
(§3) Data were analyzed using the 2-DDCT method. GAPDH was used as the reference gene, and vehicle (i.e. DMSO only) treated cells were used as the reference/untreated cell populations. Relative expression of the HTT transcripts was plotted using Graphpad Prism.
Background: In qPCR the cycle at which signal appears reflects the starting amount.

A further test relates to HTT. In words: Mini-gene reporter assay-HTT (firefly luciferase, exon inclusion). The following applies: Homo sapiens; HTT mini-gene firefly luciferase reporter transiently transfected into HEK293 cells. The gist of the method: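 HEK293 cells transiently transfected with a pcDNA3.1 mini-gene carrying the alternatively skipped exon with flanking introns and exons fused to firefly luciferase were incubated with compound, in duplicate. Exon inclusion raises luciferase luminescence. EC50 came from Levenberg-Marquardt curve fitting.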
Background: A reporter such as luciferase makes a cellular process visible.

Test [2] relates to HTT (inclusion transcript). In words: RT-qPCR assay to quantify changes in HTT splice isoforms: inclusion transcript. The following applies: Homo sapiens, SK-N-SH cells, approximately 96 hours, GAPDH reference. As for the experimental part: as §1, §2, §3

Bounds are passed on as bounds.

In general, EC50 refers to the concentration at which the effect is half-maximal. Read a low EC50 as a more potent agent. Regarding `Cc1cn2cc(-c3ccc(-c4ccc(C5CN(C)C5)nn4)c(O)c3)cc(C(F)(F)F)c2n1` [Compound 26, 5-[2-methyl-8-(trifluoromethyl)imidazo[1,2-a]pyridin-6-yl]-2-[6-(1-methylazetidin-3-yl)pyridazin-3-yl]phenol], the EC50 in test [1] was 50 to 500 nM; with HTT, at least 1000 nM; in test [2], 500 to 1000 nM.
On to `CCN1CC(c2ccc(-c3ccc(-c4ccc5nc(C)cn5n4)cc3O)nn2)C1` [Compound 38, 2-[6-(1-ethylazetidin-3-yl)pyridazin-3-yl]-5-{2-methylimidazo[1,2-b]pyridazin-6-yl}phenol], for which the EC50 was under 50 nM in test [1], 50 to 500 nM in the test on HTT and over 1000 nM in test [2].
The corresponding values for `Cc1cn2cc(-c3ccc(-c4ccc(C5CN(C(C)C)C5)nn4)c(O)c3)cc(F)c2n1` [Compound 15, 5-{8-fluoro-2-methylimidazo[1,2-a]pyridin-6-yl}-2-{6-[1-(propan-2-yl)azetidin-3-yl]pyridazin-3-yl}phenol] are under 50 nM, 50 to 500 nM and under 50 nM.
The corresponding values for `Cc1cn2cc(-c3ccc(-c4ccc(C5CN(C)C5)nn4)c(O)c3)cc(F)c2n1` [Compound 12, 5-{8-fluoro-2-methylimidazo[1,2-a]pyridin-6-yl}-2-[6-(1-methylazetidin-3-yl)pyridazin-3-yl]phenol] are under 50 nM, 50 to 500 nM and 500 to 1000 nM.
